Reference: PubChem BioAssay AID1963965 (Molecular Pharmacology Branch, DTP, NCI, 2024)

Test system: 996289-038-R-J1-PDC spheroid viability
Assay: Anticancer human tumor 996289-038-R-J1-PDC patient-derived colon adenocarcinoma cell line growth inhibition [PI3K]
Conditions: spheroids with HUVEC and MSC; for IC50: curve of first compound; for viability, T/C: stronger effect = lower value; active = viability on the fitted dose curve at most 10% of control; inactive = the rest
In short: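 Stroma-containing spheroids: tumor line, pooled-donor HUVEC, hMSC. Treatments: targeted agents with PI3K inhibitors. Dosing: clinically relevant, half-log spacing, 10 microM ceiling without known Cmax. Read-out: cell viability.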
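Note: spheroids exposed to compounds for seven days before viability read.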
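Throughout, for viability, T/C: luminescence used as a proxy for viable cell amount; percent viability relative to DMSO vehicle control as 100%.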

CNC(=O)c1ccc(N2C(=S)N(c3ccc(C#N)c(C(F)(F)F)c3)C(=O)C2(C)C)cc1F + Cc1nc(NC(=O)N2CCCC2C(N)=O)sc1-c1ccnc(C(C)(C)C(F)(F)F)c1
inactive: viability, T/C (second compound 0.0316 µM, first compound 0.0316 µM) 92% | viability, T/C (second compound 0.0316 µM, first compound 0.1 µM) 95.8% | viability, T/C (second compound 0.0316 µM, first compound 0.316 µM) 92.2% | viability, T/C (second compound 0.0316 µM, first compound 1 µM) 92.3% | viability, T/C (second compound 0.0316 µM, first compound 3.16 µM) 93.8% | viability, T/C (second compound 0.0316 µM, first compound 10 µM) 90.4% | viability, T/C (second compound 0.1 µM, first compound 0.0316 µM) 92.9% | viability, T/C (second compound 0.1 µM, first compound 0.1 µM) 82.7% | viability, T/C (second compound 0.1 µM, first compound 0.316 µM) 97.2% | viability, T/C (second compound 0.1 µM, first compound 1 µM) 83.3% | viability, T/C (second compound 0.1 µM, first compound 3.16 µM) 95.2% | viability, T/C (second compound 0.1 µM, first compound 10 µM) 90.3% | viability, T/C (second compound 0.316 µM, first compound 0.0316 µM) 90.9% | viability, T/C (second compound 0.316 µM, first compound 0.1 µM) 81% | viability, T/C (second compound 0.316 µM, first compound 0.316 µM) 88.4% | viability, T/C (second compound 0.316 µM, first compound 1 µM) 84.8% | viability, T/C (second compound 0.316 µM, first compound 3.16 µM) 73.9% | viability, T/C (second compound 0.316 µM, first compound 10 µM) 96.5% | viability, T/C (second compound 1 µM, first compound 0.0316 µM) 75.6% | viability, T/C (second compound 1 µM, first compound 0.1 µM) 76.9% | viability, T/C (second compound 1 µM, first compound 0.316 µM) 69.7% | viability, T/C (second compound 1 µM, first compound 1 µM) 79.9% | viability, T/C (second compound 1 µM, first compound 3.16 µM) 80.7% | viability, T/C (second compound 1 µM, first compound 10 µM) 70.8% | viability, T/C (second compound 3.16 µM, first compound 0.0316 µM) 65.5% | viability, T/C (second compound 3.16 µM, first compound 0.1 µM) 64.7% | viability, T/C (second compound 3.16 µM, first compound 0.316 µM) 58.9% | viability, T/C (second compound 3.16 µM, first compound 1 µM) 52.4% | viability, T/C (second compound 3.16 µM, first compound 3.16 µM) 61.5% | viability, T/C (second compound 3.16 µM, first compound 10 µM) 51.3% | viability, T/C (second compound 10 µM, first compound 0.0316 µM) 39.9% | viability, T/C (second compound 10 µM, first compound 0.1 µM) 46.9% | viability, T/C (second compound 10 µM, first compound 0.316 µM) 49.6% | viability, T/C (second compound 10 µM, first compound 1 µM) 38.9% | viability, T/C (second compound 10 µM, first compound 3.16 µM) 48.3% | viability, T/C (second compound 10 µM, first compound 10 µM) 36.8%
< 0.0316 µM: IC50 (second compound 10 µM)
> 10 µM: IC50 (second compound 0.0316 µM) | IC50 (second compound 0.1 µM) | IC50 (second compound 0.316 µM) | IC50 (second compound 1 µM) | IC50 (second compound 3.16 µM)

Cn1cnc2c(F)c(Nc3ccc(Br)cc3Cl)c(C(=O)NOCCO)cc21 + Cc1nc(NC(=O)N2CCCC2C(N)=O)sc1-c1ccnc(C(C)(C)C(F)(F)F)c1
0.148 µM: IC50 (second compound 0.0316 µM)
0.114 µM: IC50 (second compound 0.1 µM)
0.0248 µM: IC50 (second compound 1 µM)
inactive: viability, T/C (second compound 0.0316 µM, first compound 0.00949 µM) 73% | viability, T/C (second compound 0.0316 µM, first compound 0.03 µM) 64.4% | viability, T/C (second compound 0.0316 µM, first compound 0.0949 µM) 54.4% | viability, T/C (second compound 0.0316 µM, first compound 0.3 µM) 42.5% | viability, T/C (second compound 0.0316 µM, first compound 0.949 µM) 33.8% | viability, T/C (second compound 0.0316 µM, first compound 3 µM) 23.6% | viability, T/C (second compound 0.1 µM, first compound 0.00949 µM) 76.7% | viability, T/C (second compound 0.1 µM, first compound 0.03 µM) 70.4% | viability, T/C (second compound 0.1 µM, first compound 0.0949 µM) 48.6% | viability, T/C (second compound 0.1 µM, first compound 0.3 µM) 38.6% | viability, T/C (second compound 0.1 µM, first compound 0.949 µM) 30.4% | viability, T/C (second compound 0.1 µM, first compound 3 µM) 20.5% | viability, T/C (second compound 0.316 µM, first compound 0.00949 µM) 76.2% | viability, T/C (second compound 0.316 µM, first compound 0.03 µM) 60.6% | viability, T/C (second compound 0.316 µM, first compound 0.0949 µM) 41.9% | viability, T/C (second compound 0.316 µM, first compound 0.3 µM) 32% | viability, T/C (second compound 0.316 µM, first compound 0.949 µM) 26.5% | viability, T/C (second compound 0.316 µM, first compound 3 µM) 20.1% | viability, T/C (second compound 1 µM, first compound 0.00949 µM) 58.2% | viability, T/C (second compound 1 µM, first compound 0.03 µM) 50.5% | viability, T/C (second compound 1 µM, first compound 0.0949 µM) 35.3% | viability, T/C (second compound 1 µM, first compound 0.3 µM) 29.4% | viability, T/C (second compound 1 µM, first compound 0.949 µM) 22.1% | viability, T/C (second compound 1 µM, first compound 3 µM) 14.8% | viability, T/C (second compound 3.16 µM, first compound 0.00949 µM) 55.3% | viability, T/C (second compound 3.16 µM, first compound 0.03 µM) 39.1% | viability, T/C (second compound 3.16 µM, first compound 0.0949 µM) 30.1% | viability, T/C (second compound 3.16 µM, first compound 0.3 µM) 22.2% | viability, T/C (second compound 3.16 µM, first compound 0.949 µM) 16.8% | viability, T/C (second compound 10 µM, first compound 0.00949 µM) 31.3% | viability, T/C (second compound 10 µM, first compound 0.03 µM) 24.8% | viability, T/C (second compound 10 µM, first compound 0.0949 µM) 19.1% | viability, T/C (second compound 10 µM, first compound 0.3 µM) 14%
0.0594 µM: IC50 (second compound 0.316 µM)
active: viability, T/C (second compound 3.16 µM, first compound 3 µM) 8.81% | viability, T/C (second compound 10 µM, first compound 0.949 µM) 9.2% | viability, T/C (second compound 10 µM, first compound 3 µM) 5.22%
0.0135 µM: IC50 (second compound 3.16 µM)
< 0.00949 µM: IC50 (second compound 10 µM)
